The values that follow are results of earlier work, collected in US12124166B2, “Negative resist formulation for producing undercut pattern profiles” (Merck Patent GmbH, priority 2017, dated 2024).

For the data set the following is noted: for pKa (Quencher's pKa values): Table 9; for pKa in water: stated in the Materials descriptions of commercial quenchers.

Consider `CCc1ncc[nH]1` [2EI, 2-Ethylimidazole], for which the “pKa (Quencher's pKa values)” value is on record as 8.22 and the pKa in water is on record as roughly 8.22.

For the molecule `CCCCCCCCCCCCCCCCCC1=NCCN1CCO` [Addi-MC, 2-(2-heptadecyl-4,5-dihydro-1H-imidazol-1-yl)ethan-1-ol], the pKa in water is listed as roughly 10.08.

Regarding `CC(C)c1cccc(C(C)C)c1N` [DIPA, 2,6-diisopropylaniline], the “pKa (Quencher's pKa values)” value was 4.25 and the pKa in water is given as roughly 4.25.

Take `c1ccc(N(c2ccccc2)c2ccccc2)cc1` [DPA, triphenylamine]: the “pKa (Quencher's pKa values)” value is recorded as −3.04 and the pKa in water is roughly −3.04.

On to `OCCn1ccnc1` [IA, 1-(2-hydroxyethylimidazole)], for which the “pKa (Quencher's pKa values)” value is recorded as 6.78 and the pKa in water is recorded as roughly 6.78.

For the molecule `COCCOCCN(CCOCCOC)CCOCCOC` [MNNE, 2-(2-methoxyethoxy)-N,N-bis[2-(2-methoxyethoxy)ethyl]-Ethanamine], the “pKa (Quencher's pKa values)” value is reported as 6.92 and the pKa in water is roughly 6.92.

`CCN(C(C)C)C(C)C` [N,N diisopropylethylamine]: the “pKa (Quencher's pKa values)” value is recorded as 10.98.

Take `CCCN(C)CCC` [N-Methyldipropylamine]: the “pKa (Quencher's pKa values)” value is recorded as 9.91.
